{"source": "patent US20250074906A1", "about": "“AZAINDOLE DERIVATIVE THAT INHIBITS H-PGDS” (SATO PHARMACEUTICAL CO., LTD., priority 2021, published 2025)", "data": [{"molecular_target": "T1, Recombinant human H-PGDS (Homo sapiens, UniProt O60760)", "T1 construct": "made in house; host or cells: E. coli", "T1 sequence (O60760 whole entry)": "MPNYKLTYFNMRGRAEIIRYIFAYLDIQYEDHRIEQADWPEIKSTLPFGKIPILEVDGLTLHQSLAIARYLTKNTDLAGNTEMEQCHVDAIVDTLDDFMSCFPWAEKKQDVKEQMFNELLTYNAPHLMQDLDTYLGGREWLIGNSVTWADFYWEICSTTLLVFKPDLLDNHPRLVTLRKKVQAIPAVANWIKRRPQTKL", "assay": "H-PGDS inhibitory activity (prostaglandin D2 production measured by LC-MS/MS)", "type": "biochemical", "conditions": "recombinant human H-PGDS 1.0 nM expressed in E. coli; prostaglandin H2 25 μM; 15 min preincubation and 1 min reaction on ice", "description": "The H-PGDS inhibitory activity of each Example compound was measured according to the method described in WO 2007/041634.\nRecombinant human H-PGDS (final concentration: 1.0 nM) expressed in E. coli was mixed in an assay buffer containing 20 mM Tris-HCl (pH 8.0), 2 mM magnesium chloride, 2 mM reduced glutathione, and 0.5 mg/mL γ-globulin, and 150 μL of the mixture was dispensed into an 8-strip PCR tube (BM Equipment Co., Ltd). Test compounds (Example compounds) (16.5 μL) at various concentrations dissolved in DMSO were added and the mixture was preincubated for 15 minutes on ice.\nProstaglandin H2 (final concentration: 25 μM) (Cayman Chemical) was dispensed into another 8-strip PCR tube, and the solvent was dried and solidified using a vacuum concentrator (Thermo Fisher Scientific). To the dried and solidified prostaglandin H2 was added 50 μL of the assay buffer containing H-PGDS and each test compound after the preincubation, and the mixture was reacted on ice for 1 minute. 40 μL of this mixture was added to 40 μL of a stop solution (50 mM aqueous citric acid solution containing iron chloride at a final concentration of 4 mg/mL) to stop the reaction. Then, the reaction solution was deproteinized, added to a 96 square deep well plate (SHONANMARUHACHI STEC Co., Ltd.), and the prostaglandin D2 concentration in the reaction solution was measured by LC-MS/MS. ACQUITY (registered trademark) TQD (Waters) was used as a measuring instrument.\nProstaglandin D2 production activity (%) in the group with each test compound when a value obtained by subtracting the amount of production of prostaglandin D2 in the group without enzyme, which is non-specific production of prostaglandin D2, from the amount of production of prostaglandin D2 in the group without test compound (DMSO-addition group) in each 8-strip PCR tube is 100% was calculated. From the calculated activity value, the test compound concentration that inhibits prostaglandin D2 production by 50% (IC50) was determined.", "units": {"IC50": "nM"}, "values": [{"smiles": "O=C(NC12CCC(O)(CC1)CC2)c1ccc(-c2ncc(F)c3[nH]ccc23)c(F)c1", "note": "[Example 36, 3-fluoro-4-(7-fluoro-1H-pyrrolo[3,2-c]pyridin-4-yl)-N-(4-hydroxybicyclo[2.2.2]octan-1-yl)benzamide]", "IC50": 0.71}, {"smiles": "CC(C)(O)[C@H]1CC[C@H](NC(=O)c2ccc(-c3ncc(F)c4[nH]ncc34)cc2)CC1", "note": "[Example 46, 4-(7-fluoro-1H-pyrazolo[4,3-c]pyridin-4-yl)-N-[trans-4-(2-hydroxypropan-2-yl)cyclohexyl]benzamide]", "IC50": 5.3}, {"smiles": "O=C(N[C@H]1CC[C@@H](O)CC1)c1ccc(-c2ncc(Cl)c3[nH]ccc23)cc1", "note": "[Example 33, 4-(7-chloro-1H-pyrrolo[3,2-c]pyridin-4-yl)-N-(cis-4-hydroxycyclohexyl)benzamide]", "IC50": 0.77}, {"smiles": "Cc1cnc(-c2ccc(C(=O)N[C@H]3CC[C@](C)(O)CC3)cc2)c2cc[nH]c12", "note": "[Example 2, N-(trans-4-hydroxy-4-methylcyclohexyl)-4-(7-methyl-1H-pyrrolo[3,2-c]pyridin-4-yl)benzamide]", "IC50": 1.3}, {"smiles": "N#CC12CCC(NC(=O)c3ccc(-c4nccc5[nH]ccc45)c(F)c3)(CC1)CC2", "note": "[Example 7, N-(4-cyanobicyclo[2.2.2]octan-1-yl)-3-fluoro-4-(1H-pyrrolo[3,2-c]pyridin-4-yl)benzamide]", "IC50": 1.3}, {"smiles": "Cc1cnc(-c2ccc(C(=O)NC34CCC(O)(CC3)CC4)cc2)c2cc[nH]c12", "note": "[Example 1, N-(4-hydroxybicyclo[2.2.2]octan-1-yl)-4-(7-methyl-1H-pyrrolo[3,2-c]pyridin-4-yl)benzamide]", "IC50": 0.99}, {"smiles": "N#C[C@H]1CC[C@H](NC(=O)c2ccc(-c3ncc(F)c4[nH]ccc34)cc2)CC1", "note": "[Example 26, N-(trans-4-cyanocyclohexyl)-4-(7-fluoro-1H-pyrrolo[3,2-c]pyridin-4-yl)benzamide]", "IC50": 1.3}, {"smiles": "O=C(NC12CCC(O)(CC1)CC2)c1ccc(-c2ncc(Cl)c3[nH]ccc23)cc1", "note": "[Example 17, 4-(7-chloro-1H-pyrrolo[3,2-c]pyridin-4-yl)-N-(4-hydroxybicyclo[2.2.2]octan-1-yl)benzamide]", "IC50": 0.69}, {"smiles": "CC(C)(O)CO[C@H]1CC[C@H](NC(=O)c2ccc(-c3nccc4[nH]ccc34)c(F)c2)CC1", "note": "[Example 9, 3-fluoro-N-[trans-4-(2-hydroxy-2-methylpropoxy)cyclohexyl]-4-(1H-pyrrolo[3,2-c]pyridin-4-yl)benzamide]", "IC50": 1.2}, {"smiles": "CC(C)(O)[C@H]1CC[C@H](NC(=O)c2ccc(-c3nccc4[nH]nnc34)cc2)CC1", "note": "[Example 45, 4-(1H-[1,2,3]triazolo[4,5-c]pyridin-4-yl)-N-[trans-4-(2-hydroxypropan-2-yl)cyclohexyl]benzamide]", "IC50": 24}, {"smiles": "NC(=O)[C@H]1CC[C@H](NC(=O)c2ccc(-c3ncc(F)c4[nH]ccc34)cc2)CC1", "note": "[Example 27, N-(trans-4-carbamoylcyclohexyl)-4-(7-fluoro-1H-pyrrolo[3,2-c]pyridin-4-yl)benzamide]", "IC50": 2.3}, {"smiles": "CC(C)(O)CO[C@H]1CC[C@H](NC(=O)c2ccc(-c3ncc(F)c4[nH]ccc34)cc2)CC1", "note": "[Example 22, 4-(7-fluoro-1H-pyrrolo[3,2-c]pyridin-4-yl)-N-[trans-4-(2-hydroxy-2-methylpropoxy)cyclohexyl]benzamide]", "IC50": 2.1}, {"smiles": "O=C(N[C@H]1CC[C@@H](O)CC1)c1ccc(-c2ncc(F)c3[nH]ccc23)cc1", "note": "[Example 23, 4-(7-fluoro-1H-pyrrolo[3,2-c]pyridin-4-yl)-N-(cis-4-hydroxycyclohexyl)benzamide]", "IC50": 0.79}, {"smiles": "O=C(NC1CCS(=O)(=O)CC1)c1ccc(-c2ncc(F)c3[nH]ccc23)cc1", "note": "[Example 25, N-(1,1-dioxotetrahydrothiopyran-4-yl)-4-(7-fluoro-1H-pyrrolo[3,2-c]pyridin-4-yl)benzamide]", "IC50": 0.7}, {"smiles": "O=C(N[C@H]1CC[C@H](O)CC1)c1ccc(-c2ncc(Cl)c3[nH]ccc23)cc1", "note": "[Example 30, 4-(7-chloro-1H-pyrrolo[3,2-c]pyridin-4-yl)-N-(trans-4-hydroxycyclohexyl)benzamide]", "IC50": 0.68}, {"smiles": "C[C@]1(O)CC[C@H](NC(=O)c2ccc(-c3ncc(F)c4[nH]ccc34)cc2)CC1", "note": "[Example 21, 4-(7-fluoro-1H-pyrrolo[3,2-c]pyridin-4-yl)-N-(trans-4-hydroxy-4-methylcyclohexyl)benzamide]", "IC50": 1.7}, {"smiles": "Cc1cnc(-c2ccc(C(=O)N[C@H]3CC[C@H](C4(O)CC4)CC3)cc2)c2cc[nH]c12", "note": "[Example 3, N-[trans-4-(1-hydroxycyclopropyl)cyclohexyl]-4-(7-methyl-1H-pyrrolo[3,2-c]pyridin-4-yl)benzamide]", "IC50": 1.9}, {"smiles": "CC(C)(O)[C@H]1CC[C@H](NC(=O)c2ccc(-c3nccc4[nH]cnc34)cc2)CC1", "note": "[Example 44, N-[trans-4-(2-hydroxypropan-2-yl)cyclohexyl]-4-(1H-imidazo[4,5-c]pyridin-4-yl)benzamide]", "IC50": 4}, {"smiles": "CC(C)(O)[C@H]1CC[C@H](NC(=O)c2ccc(-c3nccc4[nH]ncc34)cc2)CC1", "note": "[Example 43, N-[trans-4-(2-hydroxypropan-2-yl)cyclohexyl]-4-(1H-pyrazolo[4,3-c]pyridin-4-yl)benzamide]", "IC50": 2.4}, {"smiles": "CC(C)(O)[C@H]1CC[C@H](NC(=O)c2ccc(-c3ncc(Cl)c4[nH]ncc34)cc2)CC1", "note": "[Example 48, 4-(7-chloro-1H-pyrazolo[4,3-c]pyridin-4-yl)-N-[trans-4-(2-hydroxypropan-2-yl)cyclohexyl]benzamide]", "IC50": 5.9}, {"smiles": "O=C(NC12CCC(O)(CC1)C2)c1ccc(-c2nccc3[nH]ccc23)c(F)c1", "note": "[Example 10, 3-fluoro-N-(4-hydroxybicyclo[2.2.1]heptan-1-yl)-4-(1H-pyrrolo[3,2-c]pyridin-4-yl)benzamide]", "IC50": 1}, {"smiles": "CC(C)(O)[C@H]1CC[C@H](NC(=O)c2ccc(-c3ncc(F)c4[nH]ccc34)cc2)CC1", "note": "[Example 13, 4-(7-fluoro-1H-pyrrolo[3,2-c]pyridin-4-yl)-N-[trans-4-(2-hydroxypropan-2-yl)cyclohexyl]benzamide]", "IC50": 1.4}, {"smiles": "O=C(NC1CCOCC1)c1ccc(-c2ncc(F)c3[nH]ccc23)c(F)c1", "note": "[Example 38, 3-fluoro-4-(7-fluoro-1H-pyrrolo[3,2-c]pyridin-4-yl)-N-(tetrahydropyran-4-yl)benzamide]", "IC50": 0.85}, {"smiles": "C[C@]1(O)CC[C@@H](NC(=O)c2ccc(-c3ncc(F)c4[nH]ccc34)c(F)c2)CC1", "note": "[Example 40, 3-fluoro-4-(7-fluoro-1H-pyrrolo[3,2-c]pyridin-4-yl)-N-(cis-4-hydroxy-4-methylcyclohexyl)benzamide]", "IC50": 1.1}, {"smiles": "CC(C)(O)[C@H]1CC[C@H](NC(=O)c2ccc(-c3ncc(F)c4[nH]ccc34)c(F)c2)CC1", "note": "[Example 35, 3-fluoro-4-(7-fluoro-1H-pyrrolo[3,2-c]pyridin-4-yl)-N-[trans-4-(2-hydroxypropan-2-yl)cyclohexyl]benzamide]", "IC50": 1.2}, {"smiles": "O=C(N[C@H]1CC[C@H](O)CC1)c1ccc(-c2nccc3[nH]ccc23)c(F)c1", "note": "[Example 12, 3-fluoro-N-(trans-4-hydroxycyclohexyl)-4-(1H-pyrrolo[3,2-c]pyridin-4-yl)benzamide]", "IC50": 0.88}, {"smiles": "C[C@]1(O)CC[C@H](NC(=O)c2ccc(-c3nccc4[nH]ccc34)c(F)c2)CC1", "note": "[Example 5, 3-fluoro-N-(trans-4-hydroxy-4-methylcyclohexyl)-4-(1H-pyrrolo[3,2-c]pyridin-4-yl)benzamide]", "IC50": 1}, {"smiles": "O=C(NC12CCC(O)(CC1)CC2)c1ccc(-c2ncc(F)c3[nH]ncc23)cc1", "note": "[Example 47, 4-(7-fluoro-1H-pyrazolo[4,3-c]pyridin-4-yl)-N-(4-hydroxybicyclo[2.2.2]octan-1-yl)benzamide]", "IC50": 14}, {"smiles": "O=C(NC1CCOCC1)c1ccc(-c2ncc(Cl)c3[nH]ccc23)cc1", "note": "[Example 28, 4-(7-chloro-1H-pyrrolo[3,2-c]pyridin-4-yl)-N-(tetrahydropyran-4-yl)benzamide]", "IC50": 1.7}, {"smiles": "O=C(NC12CCC(O)(CC1)CC2)c1ccc(-c2ncc(F)c3[nH]ccc23)cc1", "note": "[Example 16, 4-(7-fluoro-1H-pyrrolo[3,2-c]pyridin-4-yl)-N-(4-hydroxybicyclo[2.2.2]octan-1-yl)benzamide]", "IC50": 0.99}, {"smiles": "Cc1cnc(-c2ccc(C(=O)N[C@H]3CC[C@H](OCC(C)(C)O)CC3)cc2)c2cc[nH]c12", "note": "[Example 4, N-[trans-4-(2-hydroxy-2-methylpropoxy)cyclohexyl]-4-(7-methyl-1H-pyrrolo[3,2-c]pyridin-4-yl)benzamide]", "IC50": 1.5}, {"smiles": "O=C(NC12CCC(O)(CC1)C2)c1ccc(-c2ncc(Cl)c3[nH]ccc23)cc1", "note": "[Example 32, 4-(7-chloro-1H-pyrrolo[3,2-c]pyridin-4-yl)-N-(4-hydroxybicyclo[2.2.1]heptan-1-yl)benzamide]", "IC50": 0.91}, {"smiles": "NC(=O)C12CCC(NC(=O)c3ccc(-c4nccc5[nH]ccc45)c(F)c3)(CC1)CC2", "note": "[Example 8, 4-[3-fluoro-4-(1H-pyrrolo[3,2-c]pyridin-4-yl)benzamide]bicyclo[2.2.2]octane-1-carboxamide]", "IC50": 0.75}]}]}
